Patent US20080145858A1, “DETECTION AND IDENTIFICATION OF TOXICANTS BY MEASUREMENT OF GENE […]” (priority 2003, published 2008)
Marks after values point to notes of the source that are not given here.

Tested on: Xenopus laevis cleavage stage embryos (stage 8)
Test: Xenopus cDNA microarray, differential gene expression after PMA treatment during cleavage stage (Group I)
Format: in vivo
Details: stage 8; for Normalized by Landmarks (1.59) / Normalized by all Data Points (1.28) / Ratio of Medians (Cy5/Cy3) First Spot / Ratio of Medians (Cy5/Cy3) Mean / Ratio of Medians (Cy5/Cy3) Second Spot / (CY3/CY5) by Landmarks (1.6) / (CY3/CY5) by all Data Points (1.3) / Normalization by Landmarks (1.6) / Normalization by all Data Points (1.3): PMA 100 ng/ml
Description: Specifically, the method and screen of the present invention function as follows. EST clones produced from Xenopus laevis unfertilized eggs were used in the present study with ˜1,200 EST clones from a 18,500 EST clone set selected for production of a Xenopus cDNA microarray. The Xenopus microarray was used to measure the effect of chemical treatment on Xenopus embryo gene regulation. The chemical treatment was a phorbol ester, PMA. Xenopus eggs were obtained from females induced for ovulation and fertilized in vitro. Control Xenopus laevis embryos were allowed to develop to stage 8 blastula or stage 15 neurula. Treated embryos were exposed to PMA during cleavage stage or during neurulation with end points of blastula (stage 8) or neurula (stage 15). Specifically, PMA 100 ng/ml was added to the incubation media during cleavage stages for evaluation in stage 8 embryo or PMA was added during neural induction for evaluation in stage 15 embryos. RNA extracted from the embryos was used to generate fluorescent cDNA probes for Xenopus microarray analyses to measure differential gene expression with and without the phorbol ester treatment. Analysis was performed using paired RNA samples to compare PMA-treated and untreated embryos: Group I measured the effects of PMA-treatment during the cleavage stage in stage 8 embryos and Group II measured the effects of PMA-treatment during neurulation in stage 15 embryos. Group III measured the change in gene expression between stage 8 and stage 15 embryos.
cDNA fragments were obtained by PCR replication of Xenopus laevis unfertilized egg cDNA inserts, purified, quantitated and loaded onto glass chips by robotics. In addition to the selected ˜1,200 genes, 64 lambda Q gene, an internal control cDNA (Genomic Solutions, Inc., Ann Arbor, Mich.) was loaded on the chip. The insert DNA from ˜1,200 clones were PCR amplified using forward and reverse primers (GF.200 primers, Research Genetics, Huntsville, Ala.). A second PCR was carried out using 1 μl of the primary PCR (20 μl) for template. Excess dNTPs, polymerase and other PCR artifacts were removed from the secondary PCR reactions using Millipore Multiscreen plates (Millipore Corporation, Bedford, Mass.) using the standard protocol. The purity of the PCR products was assessed by electrophoresis and documented using an Alphalmager 1000 Digital Imaging System (Alpha Innotech Corporation, San Leandro, Calif.). The DNA obtained by PCR was quantitated using PicoGreen (Molecular Probes, Eugene, Oreg.). The DNA was denatured and arrayed onto amino-silane coated microscope slides (CMT-GAPS coated slides, Corning, Corning, N.Y.) using a Flexys robotic workstation (Genomic Solutions Inc.). The ˜1,200 PCR products were arrayed in duplicate on each slide and cross-linked. Each gene chip contained duplicate cDNA samples.
Total RNA was prepared from embryos treated in three separate dishes per treatment group that were pooled. Total RNA was isolated from the frog embryos (1,200 embryos for each probe production) using TRIzol extraction (Gibco BRL, Grand Island, N.Y.) and Qiagen RNeasy kits (Qiagen, Valencia, Calif.). The ethanol precipitated RNA was resuspended in RNase-free water, quantitated with RiboGreen (Molecular Probes, Eugene, Oreg.). Total RNA was further purified using oligoTex mRNA maxi kit (Qiagen Co.) with the bound mRNA eluted with minimum volume of elution buffer and precipitated with ethanol. The recovery rate of mRNA by the ethanol precipitation method was ˜70%. Cy3- or Cy5-tagged probes were produced from an mRNA mixture (20 μl) of Xenopus mRNA (5 μg) and lambda Q gene mRNA (3.5 ng) reverse-transcribed with oligo(dT)18-22 primer and dNTPs and the reverse-transcribed cDNA was cross-linked with Cy3 or Cy5 as described in Clontech Atlas™ Glass Fluorescent Labeling kit manual (www.clontech.com). After hydrolysis of the RNA and purification of the probe (Centricon 50, Millipore, Bedford, Mass.), the cDNA in TE buffer was quantitated by absorbance at 260 nm. […]

CCCCCCCCCCCCCC(=O)O[C@@H]1[C@@H](C)[C@@]2(O)[C@@H](C=C(CO)C[C@]3(O)C(=O)C(C)=C[C@@H]23)[C@@H]2C(C)(C)[C@]12OC(C)=O [PMA, phorbol 12-myristate 12-acetate]
alpha-tubulin expression ratio, mean of 4 data points using NF from landmarks (2 alpha-tubulin genes (house keeping)): 0.85 | Normalized by Landmarks (1.59) (PBX0134C10 mRNA): 7.95 | Normalized by all Data Points (1.28) (PBX0134C10 mRNA): 6.40 | Ratio of Medians (Cy5/Cy3) First Spot (PBX0134C10 mRNA): 3.33 | Ratio of Medians (Cy5/Cy3) Mean (PBX0134C10 mRNA): 5.00 ± 1.67^a | Ratio of Medians (Cy5/Cy3) Second Spot (PBX0134C10 mRNA): 6.67 | Normalized by Landmarks (1.59) (PBX0134E04 mRNA): 4.58 | Normalized by all Data Points (1.28) (PBX0134E04 mRNA): 3.69 | Ratio of Medians (Cy5/Cy3) First Spot (PBX0134E04 mRNA): 2.75 | Ratio of Medians (Cy5/Cy3) Mean (PBX0134E04 mRNA): 2.88 ± 0.12 | Ratio of Medians (Cy5/Cy3) Second Spot (PBX0134E04 mRNA): 3.00 | Normalized by Landmarks (1.59) (PBX0134G08 mRNA): 7.62 | Normalized by all Data Points (1.28) (PBX0134G08 mRNA): 6.13 | Ratio of Medians (Cy5/Cy3) First Spot (PBX0134G08 mRNA): 4.25 | Ratio of Medians (Cy5/Cy3) Mean (PBX0134G08 mRNA): 4.79 ± 0.54 | Ratio of Medians (Cy5/Cy3) Second Spot (PBX0134G08 mRNA): 5.33 | Normalized by Landmarks (1.59) (PBX0134G10 mRNA): 5.20 | Normalized by all Data Points (1.28) (PBX0134G10 mRNA): 4.19 | Ratio of Medians (Cy5/Cy3) First Spot (PBX0134G10 mRNA): 2.71 | Ratio of Medians (Cy5/Cy3) Mean (PBX0134G10 mRNA): 3.27 ± 0.56 | Ratio of Medians (Cy5/Cy3) Second Spot (PBX0134G10 mRNA): 3.83 | Normalized by Landmarks (1.59) (PBX0134G11 mRNA): 3.90 | Normalized by all Data Points (1.28) (PBX0134G11 mRNA): 3.14 | Ratio of Medians (Cy5/Cy3) First Spot (PBX0134G11 mRNA): 2.50 | Ratio of Medians (Cy5/Cy3) Mean (PBX0134G11 mRNA): 2.45 ± 0.05 | Ratio of Medians (Cy5/Cy3) Second Spot (PBX0134G11 mRNA): 2.40 | Normalized by Landmarks (1.59) (PBX0134H03 mRNA): 5.44 | Normalized by all Data Points (1.28) (PBX0134H03 mRNA): 4.38 | Ratio of Medians (Cy5/Cy3) First Spot (PBX0134H03 mRNA): 3.67 | Ratio of Medians (Cy5/Cy3) Mean (PBX0134H03 mRNA): 3.42 ± 0.25 | Ratio of Medians (Cy5/Cy3) Second Spot (PBX0134H03 mRNA): 3.17 | Normalized by Landmarks (1.59) (PBX0135C06 mRNA): 4.29 | Normalized by all Data Points (1.28) (PBX0135C06 mRNA): 3.46 | Ratio of Medians (Cy5/Cy3) First Spot (PBX0135C06 mRNA): 3.00 | Ratio of Medians (Cy5/Cy3) Mean (PBX0135C06 mRNA): 2.70 ± 0.30 | Ratio of Medians (Cy5/Cy3) Second Spot (PBX0135C06 mRNA): 2.40 | (CY3/CY5) by Landmarks (1.6) (PBX0136B04 mRNA): 2.76 | (CY3/CY5) by all Data Points (1.3) (PBX0136B04 mRNA): 4.41 | Normalization by Landmarks (1.6) (PBX0136B04 mRNA): 0.36 | Normalization by all Data Points (1.3) (PBX0136B04 mRNA): 0.23 | Ratio of Medians (Cy5/Cy3) First Spot (PBX0136B04 mRNA): 0.11 | Ratio of Medians (Cy5/Cy3) Mean (PBX0136B04 mRNA): 0.17 ± 0.06 | Ratio of Medians (Cy5/Cy3) Second Spot (PBX0136B04 mRNA): 0.24 | Normalized by Landmarks (1.59) (PBX0136C09 mRNA): 5.55 | Normalized by all Data Points (1.28) (PBX0136C09 mRNA): 4.47 | Ratio of Medians (Cy5/Cy3) First Spot (PBX0136C09 mRNA): 3.80 | Ratio of Medians (Cy5/Cy3) Mean (PBX0136C09 mRNA): 3.49 ± 0.31 | Ratio of Medians (Cy5/Cy3) Second Spot (PBX0136C09 mRNA): 3.17 | Normalized by Landmarks (1.59) (PBX0136F03 mRNA): 5.26 | Normalized by all Data Points (1.28) (PBX0136F03 mRNA): 4.24 | Ratio of Medians (Cy5/Cy3) First Spot (PBX0136F03 mRNA): 3.50 | Ratio of Medians (Cy5/Cy3) Mean (PBX0136F03 mRNA): 3.31 ± 0.20 | Ratio of Medians (Cy5/Cy3) Second Spot (PBX0136F03 mRNA): 3.11 | Normalized by Landmarks (1.59) (PBX0137A11 mRNA): 5.31 | Normalized by all Data Points (1.28) (PBX0137A11 mRNA): 4.28 | Ratio of Medians (Cy5/Cy3) First Spot (PBX0137A11 mRNA): 2.17 | Ratio of Medians (Cy5/Cy3) Mean (PBX0137A11 mRNA): 3.34 ± 1.66 | Ratio of Medians (Cy5/Cy3) Second Spot (PBX0137A11 mRNA): 4.50 | (CY3/CY5) by Landmarks (1.6) (PBX0137E10 mRNA): 1.85 | (CY3/CY5) by all Data Points (1.3) (PBX0137E10 mRNA): 2.96 | Normalization by Landmarks (1.6) (PBX0137E10 mRNA): 0.54 | Normalization by all Data Points (1.3) (PBX0137E10 mRNA): 0.34 | Ratio of Medians (Cy5/Cy3) First Spot (PBX0137E10 mRNA): 0.31 | Ratio of Medians (Cy5/Cy3) Mean (PBX0137E10 mRNA): 0.26 ± 0.05 | Ratio of Medians (Cy5/Cy3) Second Spot (PBX0137E10 mRNA): 0.21 | Normalized by Landmarks (1.59) (PBX0137G06 mRNA): 3.74 | Normalized by all Data Points (1.28) (PBX0137G06 mRNA): 3.01 | Ratio of Medians (Cy5/Cy3) First Spot (PBX0137G06 mRNA): 2.22 | Ratio of Medians (Cy5/Cy3) Mean (PBX0137G06 mRNA): 2.35 ± 0.13 | Ratio of Medians (Cy5/Cy3) Second Spot (PBX0137G06 mRNA): 2.47 | Normalized by Landmarks (1.59) (PBX0138A04 mRNA): 4.75 | Normalized by all Data Points (1.28) (PBX0138A04 mRNA): 3.83 | Ratio of Medians (Cy5/Cy3) First Spot (PBX0138A04 mRNA): 1.64
